Literature values, collected in US6815453B1, “Cosmetic and dermatological light protection formulations having a content of triazine derivatives and glyceryl compounds” (Beiersdorf AG, priority 1996, dated 2004).

corresponding dissolved, and therefore active, UV filter substance (corresponding to the maximum solubility in known solvents): 1-1.5 % by weight
maximum amount of the filter dissolved by known solvents (known solvents for this UVB filter, prior-art statement): ≤ 15 % by weight
solubility in lipids (stated in words as the main disadvantage): poor solubility in lipids
Structure (SMILES): CCCCC(CC)COC(=O)c1ccc(Nc2nc(Nc3ccc(C(=O)OCC(CC)CCCC)cc3)nc(Nc3ccc(C(=O)OCC(CC)CCCC)cc3)n2)cc1 (stereo not drawn) [UVINUL® T 150, 4,4′,4″-(1,3,5-triazine-2,4,6-triyltriimino)-trisbenzoic acid tris(2-ethylhexyl ester)]
